Measurements from patent US9409914B2, “Triazolo[4,5-d]pyrimidine derivatives” (Merck Patent GmbH, priority 2012, dated 2016).
pIC50: −log10 of the molar value.

Target: GCN2 (Homo sapiens, UniProt Q9P2K8)
Assay: GCN2 enzyme assay (TR-FRET Lanthascreen, phosphorylation of GFP-eIF2alpha)
Format: biochemical
Settings: 10 μM ATP, 80 nM GFP-eIF2alpha, 30 nM GCN2, room temperature
Excerpt: GCN2: Assay principle & conditions
This assay can quantificate the activity of the serin kinase GCN2 (general control non-derepressible-2).
This kinase is involved in the stress metabolism of cells. It is activated upon starvation (amino acid depletion). Its natural substrate is eIF2a (eukaryotic initiation factor 2 alpha subunit), a translation factor, which gets activated (phosphorylated) by GCN2 in case of an amino acid bottleneck in the cells. This in turn leads to a halt of the protein synthesis. Inhibition of GCN2 results in stopping this mechanism: The cell can not stop protein production upon “starvation” stress.
The assay is run in two steps: the enzymatic reaction and the detection step. In the first step GCN2 is incubated with 10 μM ATP and 80 nM of the GFP-labelled substrate eIF2alpha at room temperature.
The enzymatic reaction is stopped by addition of EDTA. The amount of phosphorylated eIF2alpha is determined by TR-FRET (Lanthascreen): A complex is formed consisting of antibody and GFP labelled phospho-eIF2a, which allows a FRET upon exitation at 340 nm.
The GCN2-activity is directly proportional to the ratio of fluorescence units at the emission wavelengthh 520 nm (phosphopeptide-sensitive wavelength=emission of GFP) to the units at 495 nm (reference wavelength=emission of Terbium-chelate).
Final Concentrations in the Enzymatic Reaction

Chain of GCN2 (Q9P2K8 whole entry, species assumed): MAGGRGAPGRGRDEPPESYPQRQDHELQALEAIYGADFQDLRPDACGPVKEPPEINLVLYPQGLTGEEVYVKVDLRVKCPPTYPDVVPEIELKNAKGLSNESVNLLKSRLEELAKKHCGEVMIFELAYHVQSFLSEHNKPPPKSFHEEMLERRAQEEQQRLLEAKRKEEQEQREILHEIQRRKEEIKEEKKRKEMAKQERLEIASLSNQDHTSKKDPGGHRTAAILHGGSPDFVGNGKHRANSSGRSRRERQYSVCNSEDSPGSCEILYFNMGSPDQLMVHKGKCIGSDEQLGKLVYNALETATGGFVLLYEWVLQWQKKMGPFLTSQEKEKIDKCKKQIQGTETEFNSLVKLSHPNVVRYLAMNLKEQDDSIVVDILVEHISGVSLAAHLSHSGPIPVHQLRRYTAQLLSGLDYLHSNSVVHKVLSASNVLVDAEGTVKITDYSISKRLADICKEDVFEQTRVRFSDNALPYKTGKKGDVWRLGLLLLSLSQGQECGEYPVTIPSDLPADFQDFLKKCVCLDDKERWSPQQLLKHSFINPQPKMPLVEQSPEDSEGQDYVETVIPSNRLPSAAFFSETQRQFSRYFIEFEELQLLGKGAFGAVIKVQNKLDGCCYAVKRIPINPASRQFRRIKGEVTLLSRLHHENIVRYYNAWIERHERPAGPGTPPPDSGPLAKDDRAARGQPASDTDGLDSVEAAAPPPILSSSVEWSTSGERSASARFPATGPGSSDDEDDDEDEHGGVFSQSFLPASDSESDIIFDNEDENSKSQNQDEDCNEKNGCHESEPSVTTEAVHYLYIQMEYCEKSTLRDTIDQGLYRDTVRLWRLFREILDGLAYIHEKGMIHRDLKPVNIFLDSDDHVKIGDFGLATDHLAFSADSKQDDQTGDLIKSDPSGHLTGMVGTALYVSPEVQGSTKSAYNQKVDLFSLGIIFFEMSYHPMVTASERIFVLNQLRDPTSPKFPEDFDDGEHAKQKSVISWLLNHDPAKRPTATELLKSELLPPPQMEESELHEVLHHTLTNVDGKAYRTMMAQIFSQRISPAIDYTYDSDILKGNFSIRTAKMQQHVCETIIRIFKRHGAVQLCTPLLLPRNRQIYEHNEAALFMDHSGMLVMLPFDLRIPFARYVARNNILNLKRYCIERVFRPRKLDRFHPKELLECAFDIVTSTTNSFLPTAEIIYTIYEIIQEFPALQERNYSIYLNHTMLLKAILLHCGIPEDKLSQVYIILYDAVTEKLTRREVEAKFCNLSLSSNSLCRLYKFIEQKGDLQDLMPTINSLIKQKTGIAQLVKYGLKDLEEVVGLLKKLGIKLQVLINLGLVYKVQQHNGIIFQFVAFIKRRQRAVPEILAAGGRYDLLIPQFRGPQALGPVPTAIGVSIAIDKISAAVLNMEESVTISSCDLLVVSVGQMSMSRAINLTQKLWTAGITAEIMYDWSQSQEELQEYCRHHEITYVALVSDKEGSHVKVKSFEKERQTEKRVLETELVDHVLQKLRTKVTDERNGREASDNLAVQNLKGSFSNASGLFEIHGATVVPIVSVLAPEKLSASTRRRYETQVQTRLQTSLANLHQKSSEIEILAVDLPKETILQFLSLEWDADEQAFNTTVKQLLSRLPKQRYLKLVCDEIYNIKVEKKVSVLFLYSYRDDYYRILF

SMILES	pIC50
CC(=O)Nc1ccc(-n2nnc3cnc(Nc4cnn(C[C@@H]5C[C@H]5CO)c4)nc32)cn1 (relative stereo) [Compound A59, N-(5-{5-[1-((trans)-2-hydroxymethyl-cyclopropylmethyl)-1H-pyrazol-4-ylamino]-[1,2,3]triazolo[4,5-d]pyrimidin-3-yl}-pyridin-2-yl)-acetamide]	5.52 to 6.52
Nc1ccc(-n2nnc3cnc(Nc4cnn(C[C@@H]5C[C@H]5CO)c4)nc32)cn1 (relative stereo) [Compound A60, ((trans)-2-{4-[3-(6-amino-pyridin-3-yl)-3H-[1,2,3]triazolo[4,5-d]pyrimidin-5-ylamino]-pyrazol-1-ylmethyl}-cyclopropyl)-methanol]	5.52 to 6.52
OC[C@@H]1C[C@H]1Cn1cc(Nc2ncc3nnn(-c4ccc5nccnc5c4)c3n2)cn1 (relative stereo) [Compound A104, {(trans)-2-[4-(3-quinoxalin-6-yl-3H-[1,2,3]triazolo[4,5-d]pyrimidin-5-ylamino)-pyrazol-1-ylmethyl]-cyclopropyl}-methanol]	> 6.52
COc1ccc(-n2nnc3cnc(Nc4ccn(C)n4)nc32)cc1 [Compound A2, [3-(4-methoxy-phenyl)-3H-[1,2,3]triazolo[4,5-d]pyrimidin-5-yl]-(1-methyl-1H-pyrazol-3-yl)-amine]	4.30 to 5.52
CCOc1ccc(-n2nnc3cnc(Nc4cn[nH]c4)nc32)cc1 [Compound A5, [3-(4-ethoxy-phenyl)-3H-[1,2,3]triazolo[4,5-d]pyrimidin-5-yl]-(1H-pyrazol-4-yl)-amine]	> 6.52
CCOc1ccc(-n2nnc3cnc(Nc4cnn(C5CCNCC5)c4)nc32)cc1 [Compound A7, [3-(4-Ethoxy-phenyl)-3H-[1,2,3]triazolo[4,5-d]pyrimidin-5-yl]-(1-piperidin-4-yl-1H-pyrazol-4-yl)-amine]	> 6.52
COCCCn1cc(Nc2ncc3nnn(-c4ccc(OC)cc4)c3n2)cn1 [Compound A9, [3-(4-methoxy-phenyl)-3H-[1,2,3]triazolo[4,5-d]pyrimidin-5-yl]-[1-(3-methoxy-propyl)-1H-pyrazol-4-yl]-amine]	5.52 to 6.52
COc1ccc(-n2nnc3cnc(Nc4cnn(Cc5ccccc5)c4)nc32)cc1 [Compound A10, (1-benzyl-1H-pyrazol-4-yl)-[3-(4-methoxy-phenyl)-3H-[1,2,3]triazolo[4,5-d]pyrimidin-5-yl]-amine]	4.30 to 5.52
COc1ccc(-n2nnc3cnc(/N=C4/N=C(C)CO4)nc32)cc1 [Compound A12, [3-(4-methoxy-phenyl)-3H-[1,2,3]triazolo[4,5-d]pyrimidin-5-yl]-[4-methyl-5H-oxazol-(2Z)-ylidene]-amine]	4.30 to 5.52
COc1ccc(-n2nnc3cnc(Nc4cnn(C5CCOCC5)c4)nc32)cc1 [Compound A13, [3-(4-methoxy-phenyl)-3H-[1,2,3]triazolo[4,5-d]pyrimidin-5-yl]-[1-(tetrahydro-pyran-4-yl)-1H-pyrazol-4-yl]-amine]	> 6.52
COc1ccc(-n2nnc3cnc(Nc4cnn(CCN5CCCC5)c4)nc32)cc1 [Compound A14, [3-(4-methoxy-phenyl)-3H-[1,2,3]triazolo[4,5-d]pyrimidin-5-yl]-[1-(2-pyrrolidin-1-yl-ethyl)-1H-pyrazol-4-yl]-amine]	> 6.52
CCOc1ccc(-n2nnc3cnc(Nc4cnn(C5CCOCC5)c4)nc32)cc1 [Compound A15, [3-(4-ethoxy-phenyl)-3H-[1,2,3]triazolo[4,5-d]pyrimidin-5-yl]-[1-(tetrahydro-pyran-4-yl)-1H-pyrazol-4-yl]-amine]	> 6.52
COc1ccc(-n2nnc3cnc(Nc4ncn[nH]4)nc32)cc1 [Compound A17, [3-(4-methoxy-phenyl)-3H-[1,2,3]triazolo[4,5-d]pyrimidin-5-yl]-(2H-[1,2,4]triazol-3-yl)-amine]	4.30 to 5.52
COc1ccc(-n2nnc3cnc(Nc4cnn(C)c4)nc32)cc1 [Compound A18, [3-(4-methoxy-phenyl)-3H-[1,2,3]triazolo[4,5-d]pyrimidin-5-yl]-(1-methyl-1H-pyrazol-4-yl)-amine]	> 6.52
CCOc1ccc(-n2nnc3cnc(Nc4cnn([C@H]5CC[C@@H](O)CC5)c4)nc32)cc1 [Compound A19, 4-{4-[3-(4-ethoxy-phenyl)-3H-[1,2,3]triazolo[4,5-d]pyrimidin-5-ylamino]-pyrazol-1-yl}-cyclohexanol]	> 6.52
Fc1ccc(-n2nnc3cnc(Nc4cnn(C5CCOCC5)c4)nc32)cc1 [Compound A20, [3-(4-fluoro-phenyl)-3H-[1,2,3]triazolo[4,5-d]pyrimidin-5-yl]-[1-(tetrahydro-pyran-4-yl)-1H-pyrazol-4-yl]-amine]	> 6.52
Cn1cc(Nc2ncc3nnn(-c4cnn(C)c4)c3n2)cn1 [Compound A21, (1-methyl-1H-pyrazol-4-yl)-[3-(1-methyl-1H-pyrazol-4-yl)-3H-[1,2,3]triazolo[4,5-d]pyrimidin-5-yl]-amine]	> 6.52
COc1ccc(-n2nnc3cnc(Nc4nc(-c5ccc(NC(C)=O)cc5)cs4)nc32)cc1 [Compound A42, N-[4-[2-[[3-(4-methoxyphenyl)triazolo[4,5-d]pyrimidin-5-yl]amino]thiazol-4-yl]phenyl]acetamide]	5.52 to 6.52
O=C1CCCN1c1ccc(-n2nnc3cnc(Nc4cnn(C5CCOCC5)c4)nc32)cc1 [Compound A43, 1-[4-[5-[(1-tetrahydropyran-4-ylpyrazol-4-yl)amino]triazolo[4,5-d]pyrimidin-3-yl]phenyl]pyrrolidin-2-one]	> 6.52
CCCCOc1ccc(-n2nnc3cnc(Nc4cnn(C5CCN(C)CC5)c4)nc32)cn1 [Compound A45, [3-(6-butoxy-pyridin-3-yl)-3H-[1,2,3]triazolo[4,5-d]pyrimidin-5-yl]-[1-(1-methyl-piperidin-4-yl)-1H-pyrazol-4-yl]-amine]	5.52 to 6.52
CCCCOc1ccc(-n2nnc3cnc(Nc4cnn(C5CCOCC5)c4)nc32)cn1 [Compound A47, [3-(6-butoxy-pyridin-3-yl)-3H-[1,2,3]triazolo[4,5-d]pyrimidin-5-yl]-[1-(tetrahydro-pyran-4-yl)-1H-pyrazol-4-yl]-amine]	5.52 to 6.52
COCCCn1cc(Nc2ncc3nnn(-c4ccc(Cl)c(F)c4)c3n2)cn1 [Compound A50, [3-(4-chloro-3-fluoro-phenyl)-3H-[1,2.3]triazolo[4,5-d]pyrimidin-5-yl]-[1-(3-methoxy-propyl)-1H-pyrazol-4-yl]-amine]	> 6.52
CN1CCC(n2cc(Nc3ncc4nnn(-c5cnc6ccccc6c5)c4n3)cn2)CC1 [Compound A52, [1-(1-methyl-piperidin-4-yl)-1H-pyrazol-4-yl]-(3-quinolin-3-yl-3H-[1,2,3]triazolo[4,5-d]pyrimidin-5-yl)-amine]	> 6.52
CC(C)(C)OCCn1cc(Nc2ncc3nnn(-c4ccc(Cl)c(F)c4)c3n2)cn1 [Compound A53, [1-(2-tert-butoxy-ethyl)-1H-pyrazol-4-yl]-[3-(4-chloro-3-fluoro-phenyl)-3H-[1,2,3]triazolo[4,5-d]pyrimidin-5-yl]-amine]	5.52 to 6.52
CCCCOc1ccc(-n2nnc3cnc(Nc4cnn(CCC5CCNCC5)c4)nc32)cn1 [Compound A55, [3-(6-butoxy-pyridin-3-yl)-3H-[1,2,3]triazolo[4,5-d]pyrimidin-5-yl]-[1-(2-piperidin-4-yl-ethyl)-1H-pyrazol-4-yl]-amine]	5.52 to 6.52
